The values below are quoted from earlier work in PMC8435724, “A Single L/D-Substitution at Q4 of the mInsA2-10 Epitope Prevents Type 1 Diabetes in Humanized NOD Mice” (Frontiers in Immunology, 2021).

For data set [1], the system named is insulin B15-23-reactive CD8^+ T cell clone G9C8. The settings on record: cytotoxicity and IFN-γ production assays.
The subject of data set [2] is T cells of T1D patients. The source says: Thus, human InsA2-10 is likely to be an immunogenic target for diabetic patients.

For the substance “G6H: APL of insulin B15-23 (LYLVCGERG) substituted at position 6 (LYLVCHERG)”, in data set [1], the “antagonist activity on clone G9C8 (in words)” value is given as “antagonist activity”.
Consider “GIVEQCCTSI [InsA1-10, human proinsulin (PPI) 90-99 or InsA1-10 (…)]”, for which the “presence of specific T cell responses (in words)” value in data set [2] is “presence of specific T cell responses”.
In the case of “R8L: APL of insulin B15-23 (LYLVCGERG) substituted at position 8 (LYLVCGELG)”, the “antagonist activity on clone G9C8 (in words)” value in data set [1] is given as “antagonist activity”.
